From PubChem BioAssay AID248 (DTP/NCI, 2004)
Where “and” joins values, the source holds several entries; their conditions need not be identical. Identical values can stand only once. Toxic doses and inconclusive results are not listed. No stated cut-off is given here; in the data, active means T/C of 150% or more; inactive means T/C below 125%.

Tested on: L1210 leukemia ip in BDF1 mice, survival T/C
Experiment: NCI In Vivo Anticancer Drug Screen. Data for tumor model L1210 Leukemia (intraperitoneal) in B6D2F1 (BDF1) mice
Conditions: endpoint: mean survival time, higher = longer survival
Procedure, shortened: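 Mice bearing the transplanted tumor received compound or vehicle. Survival of the treated group was divided by that of the vehicle-treated control group to give the ratio.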

[1] = dose: 100.0 mg/kg/injection, schedule: Q01DX009 (ip), vehicle: saline with Tween-80
[2] = dose: 100.0 mg/kg/injection, schedule: Q04DX002 (ip), vehicle: saline with Tween-80
[3] = dose: 200.0 mg/kg/injection, schedule: Q01DX009 (ip), vehicle: saline with Tween-80
[4] = dose: 200.0 mg/kg/injection, schedule: Q04DX002 (ip), vehicle: saline with Tween-80
[5] = dose: 400.0 mg/kg/injection, schedule: Q01DX009 (ip), vehicle: saline with Tween-80
[6] = dose: 400.0 mg/kg/injection, schedule: Q04DX002 (ip), vehicle: saline with Tween-80
[7] = dose: 100.0 mg/kg/injection, schedule: Q04DX003 (ip), vehicle: saline
[8] = dose: 200.0 mg/kg/injection, schedule: Q01DX009 (ip), vehicle: saline
[9] = dose: 200.0 mg/kg/injection, schedule: Q04DX003 (ip), vehicle: saline
[10] = dose: 400.0 mg/kg/injection, schedule: Q01DX009 (ip), vehicle: saline
[11] = dose: 400.0 mg/kg/injection, schedule: Q04DX003 (ip), vehicle: saline
[12] = dose: 100.0 mg/kg/injection, schedule: Q04DX003 (ip), vehicle: Klucel (hydroxypropylcellulose) (HPC)
[13] = dose: 200.0 mg/kg/injection, schedule: Q04DX003 (ip), vehicle: Klucel (hydroxypropylcellulose) (HPC)
[14] = dose: 400.0 mg/kg/injection, schedule: Q04DX003 (ip), vehicle: Klucel (hydroxypropylcellulose) (HPC)
[15] = dose: 100.0 mg/kg/injection, schedule: Q01DX001 (ip), vehicle: carboxymethylcellulose (CMC)
[16] = dose: 200.0 mg/kg/injection, schedule: Q01DX001 (ip), vehicle: carboxymethylcellulose (CMC)
[17] = dose: 400.0 mg/kg/injection, schedule: Q01DX001 (ip), vehicle: carboxymethylcellulose (CMC)
[18] = dose: 100.0 mg/kg/injection, schedule: Q04DX002 (ip), vehicle: Klucel (hydroxypropylcellulose) (HPC)
[19] = dose: 200.0 mg/kg/injection, schedule: Q04DX002 (ip), vehicle: Klucel (hydroxypropylcellulose) (HPC)
[20] = dose: 400.0 mg/kg/injection, schedule: Q04DX002 (ip), vehicle: Klucel (hydroxypropylcellulose) (HPC)
[21] = dose: 100.0 mg/kg/injection, schedule: Q01DX009 (ip), vehicle: Klucel (hydroxypropylcellulose) (HPC)

Measured: T/C

O=C(Nc1cccc(S(=O)(=O)F)c1)Oc1ccc([N+](=O)[O-])cc1
inactive: dose: 100.0 mg/kg/injection, schedule: Q01DX001 (ip), vehicle: saline with Tween-80 100 % of control | [1] 95 % of control and 100 % of control | [2] 91 % of control | dose: 100.0 mg/kg/injection, schedule: Q04DX003 (ip), vehicle: saline with Tween-80 95 % of control | dose: 200.0 mg/kg/injection, schedule: Q01DX001 (ip), vehicle: saline with Tween-80 100 % of control | [3] 98 % of control and 102 % of control | [4] 91 % of control | dose: 200.0 mg/kg/injection, schedule: Q04DX003 (ip), vehicle: saline with Tween-80 100 % of control | dose: 400.0 mg/kg/injection, schedule: Q01DX001 (ip), vehicle: saline with Tween-80 98 % of control | [5] 88 % of control | [6] 90 % of control

O=Cc1cc2ccccc2[nH]1
inactive: [2] 105 % of control | [4] 102 % of control | [6] 102 % of control

CCCCCCN(CCCCCC)C(F)(F)C(=O)Nc1ccc(S(=O)(=O)c2ccc(NC(=O)C(F)(F)N(CCCCCC)CCCCCC)cc2)cc1
inactive: dose: 12.5 mg/kg/injection, schedule: Q01DX001 (ip), vehicle: saline 105 % of control | dose: 25.0 mg/kg/injection, schedule: Q01DX001 (ip), vehicle: saline 100 % of control | dose: 50.0 mg/kg/injection, schedule: Q01DX001 (ip), vehicle: saline 107 % of control

CN(C(=O)Cl)c1ccccc1
inactive: dose: 12.5 mg/kg/injection, schedule: Q01DX009 (ip), vehicle: Klucel (hydroxypropylcellulose) (HPC) 95 % of control | dose: 12.5 mg/kg/injection, schedule: Q04DX003 (ip), vehicle: Klucel (hydroxypropylcellulose) (HPC) 95 % of control | dose: 25.0 mg/kg/injection, schedule: Q01DX009 (ip), vehicle: Klucel (hydroxypropylcellulose) (HPC) 95 % of control | dose: 25.0 mg/kg/injection, schedule: Q04DX003 (ip), vehicle: Klucel (hydroxypropylcellulose) (HPC) 97 % of control | dose: 50.0 mg/kg/injection, schedule: Q01DX009 (ip), vehicle: Klucel (hydroxypropylcellulose) (HPC) 93 % of control | dose: 50.0 mg/kg/injection, schedule: Q04DX003 (ip), vehicle: Klucel (hydroxypropylcellulose) (HPC) 93 % of control

COC(=O)c1cc(Cl)cc(C(=O)OC)n1
inactive: [7] 100 % of control | [8] 94 % of control | [9] 103 % of control | [10] 100 % of control | [11] 99 % of control

CCCc1cc(=O)[nH]c(=S)[nH]1
inactive: [12] 93 % of control | [13] 96 % of control | [14] 101 % of control

CCC(=O)C(C)C(=O)Nc1ccccc1 (stereo unspecified)
inactive: [15] 102 % of control | [16] 94 % of control | [17] 100 % of control

CCOC(=O)c1[nH]cnc1/N=N/N(C)C1CCCCC1
inactive: dose: 85.0 mg/kg/injection, schedule: Q01DX015 (ip), vehicle: carboxymethylcellulose (CMC) 103 % of control | [15] 98 % of control | dose: 114.0 mg/kg/injection, schedule: Q01DX015 (ip), vehicle: carboxymethylcellulose (CMC) 107 % of control | [16] 109 % of control | [17] 102 % of control

C=CCCCCCCCCC(=O)Nc1ccc(Cl)cc1C(=O)c1ccccc1
inactive: [18] 95 % of control | [19] 92 % of control | [20] 89 % of control

OCC1OC(n2ccc3c(N4CCCCC4)ncnc32)C(O)C1O (stereo unspecified)
inactive: dose: 50.0 mg/kg/injection, schedule: Q01DX001 (ip), vehicle: carboxymethylcellulose (CMC) 93 % of control | [15] 95 % of control | [16] 98 % of control | [17] 93 % of control

CCN(CC)CCN(C)C(=O)C(c1ccccc1)c1ccccc1
inactive: [7] 98 % of control | [9] 93 % of control

Nc1ncccc1[N+](=O)[O-]
inactive: [1] 109 % of control | [3] 98 % of control | [5] 112 % of control

COc1cc(Cl)ccc1NC(=O)OCCc1ccccn1
inactive: dose: 100.0 mg/kg/injection, schedule: Q01DX009 (ip), vehicle: saline 97 % of control | [8] 100 % of control | [10] 97 % of control

CCOC(=O)C(CCc1ccncc1)c1ccccc1 (stereo unspecified)
inactive: dose: 111.0 mg/kg/injection, schedule: Q01DX Z (ip), vehicle: methylcellulose (MC) 94 % of control | dose: 166.0 mg/kg/injection, schedule: Q01DX Z (ip), vehicle: methylcellulose (MC) 102 % of control | dose: 250.0 mg/kg/injection, schedule: Q01DX Z (ip), vehicle: methylcellulose (MC) 96 % of control

O=C(O)CNc1cccc([N+](=O)[O-])c1
inactive: dose: 65.0 mg/kg/injection, schedule: Q01DX009 (ip), vehicle: Klucel (hydroxypropylcellulose) (HPC) 100 % of control | [21] 100 % of control | [12] 98 % of control | dose: 150.0 mg/kg/injection, schedule: Q01DX009 (ip), vehicle: Klucel (hydroxypropylcellulose) (HPC) 94 % of control | [13] 93 % of control | [14] 101 % of control

CC(=O)N1Cc2nc(N)nc(N)c2C1
inactive: [15] 95 % of control | [16] 104 % of control | [17] 104 % of control

O=C1C=CC(=O)N1c1ccc(F)cc1 (tested in a mixture with another compound)
inactive: dose: 100.0 mg/kg/injection, schedule: Q04DX003 (ip), vehicle: acetone 86 % of control | dose: 100.0 mg/kg/injection, schedule: Q04DX003 (ip), vehicle: other 97 % of control | dose: 200.0 mg/kg/injection, schedule: Q04DX003 (ip), vehicle: acetone 86 % of control | dose: 200.0 mg/kg/injection, schedule: Q04DX003 (ip), vehicle: other 86 % of control | dose: 400.0 mg/kg/injection, schedule: Q04DX003 (ip), vehicle: other 87 % of control and 95 % of control

CNc1ccc(C(=O)O)cc1I
inactive: [21] 100 % of control | [12] 94 % of control | dose: 200.0 mg/kg/injection, schedule: Q01DX009 (ip), vehicle: Klucel (hydroxypropylcellulose) (HPC) 94 % of control | [13] 103 % of control | dose: 400.0 mg/kg/injection, schedule: Q01DX009 (ip), vehicle: Klucel (hydroxypropylcellulose) (HPC) 94 % of control | [14] 96 % of control

CNC(=O)C1C(c2ccccc2)C1c1ccc(C)cc1 (stereo unspecified)
inactive: [18] 88 % of control | [19] 92 % of control | [20] 103 % of control

C[S+](C)Cc1ccccc1
inactive: dose: 50.0 mg/kg/injection, schedule: Q04DX003 (ip), vehicle: saline 96 % of control | dose: 100.0 mg/kg/injection, schedule: Q01DX009 (ip), vehicle: other 93 % of control | [7] 100 % of control

COc1cc(N)ccc1/C=C/C(=O)O
inactive: [7] 97 % of control | [9] 98 % of control | [11] 92 % of control

NC(CS)C(=O)O (stereo unspecified) (tested in a mixture with another compound)
inactive: dose: 100.0 mg/kg/injection, schedule: Q01DX001 (ip), vehicle: saline 108 % of control | dose: 200.0 mg/kg/injection, schedule: Q01DX001 (ip), vehicle: saline 92 % of control | dose: 400.0 mg/kg/injection, schedule: Q01DX001 (ip), vehicle: saline 89 % of control

CCCCCCCCCCCCCCOc1ccc(F)cc1F
inactive: [18] 111 % of control | [19] 107 % of control | [20] 96 % of control

CC/C=C(/C#N)CC
inactive: [2] 104 % of control | [4] 93 % of control

Cc1c(C2=CC(=O)c3ccccc3C2=O)[nH]c2ccccc12
inactive: dose: 50.0 mg/kg/injection, schedule: Q01DX001 (ip), vehicle: other 93 % of control | dose: 100.0 mg/kg/injection, schedule: Q01DX001 (ip), vehicle: other 91 % of control | dose: 200.0 mg/kg/injection, schedule: Q01DX001 (ip), vehicle: other 102 % of control | dose: 400.0 mg/kg/injection, schedule: Q01DX001 (ip), vehicle: other 106 % of control

CCN(CC)CCSc1nc2ccccc2[nH]1
inactive: dose: 55.0 mg/kg/injection, schedule: Q01DX Z (ip), vehicle: saline 104 % of control | dose: 83.0 mg/kg/injection, schedule: Q01DX Z (ip), vehicle: saline 91 % of control | dose: 125.0 mg/kg/injection, schedule: Q01DX Z (ip), vehicle: saline 94 % of control
